# How the values were obtained:
# [1] = test system: double-stranded DNA of the region from −605 to −599 containing the NFκβ binding site of the human matrix metalloproteinase-9 promoter; experiment: Gel shift assay (EMSA), NFκβ site oligonucleotide; conditions: 10 μM polyamide, 0.6 μM fluorescently labeled double-stranded DNA, 37° C., 1 hour
# Description: (§1) Oligonucleotides were synthesized and annealed to form 2 kinds of double-stranded oligonucleotides corresponding to the promoter base pairs against HMMP9AP1 and HMMP9NFκβ. One single-stranded oligonucleotide was labeled with FITC and hybridized with another single-stranded oligonucleotide as a complementary sequence to prepare double-stranded DNA. Specifically, nucleotides having the following nucleotide sequences were prepared: HMMP9AP1 (match) sense primer (5′[…]) (SEQ ID NO: 8) corresponding to the region from −77 to −70 containing the AP-1 binding site; this sequence plus 2-base mutation, i.e., HMMP9AP1 oligo DNA (mismatch 1) sense primer (5′[…]) (SEQ ID NO: 9); HMMP9NFκβ (match) sense primer (5′[…]) (SEQ ID NO: 10) containing the region from −605 to −599 containing the NFκβ binding site; this sequence plus 2-base mutation, i.e., HMMP9NFκβ (mismatch 1) sense primer (5′[…]) (SEQ ID NO: 11); and antisense primers respectively complementary to these 4 primers. […] The obtained complexes were electrophoresed on a 20% polyacrylamide gel, and the mobilities of the fluorescently labeled double-stranded oligonucleotides were analyzed with a fluorescent image analyzer (FUJIFILM, LAS-4000, Tokyo, Japan). […]
# [2] = test system: binding of NF-κβ protein with the MMP-9 promoter region; experiment: Immunoprecipitation/PCR assay with anti-NF-κβ antibodies; type: cell-based, human; conditions: 1 μM, 4 hours, MDA-MB-231 and HeLa cells
# Description: Immunoprecipitation/PCR assay with anti-NF-κβ antibodies was conducted using MDA-MB-231 and HeLa cells. The MDA-MB-231 and HeLa cells were separately inoculated to a 100-mm culture dish and cultured for 24 hours in […] of Dulbecco's modified Eagle medium (DMEM) containing 10% fetal bovine serum (Invitrogen) and then with 1 μM match polyamide HMMP9NFκβ or 1 μM mismatch polyamide (shown in FIG. 26) for 4 hours. Protein-DNA complexes were fixed in 1% formaldehyde, reacted with specific NF-κB p65 antibodies and nonspecific rabbit immunoglobulin G antibodies, and collected by precipitation as antibody-protein-DNA complexes using Protein A beads. From the protein-DNA complexes, DNA was separated through reaction with 5 M NaCl and subjected to amplification reaction using PCR primers flanking the NFκβ binding sequence of MMP9. The NFκβ-bound DNA of an MMP9 gene promoter region is identified as a PCR product.
# An MMP-9 promoter region from −657 to −484 was amplified using PCR primers (forward: 5′-TGTCCCTTTACTGCCCTGA-3′ (SEQ ID NO: 20) and reverse: 5′-[…]-3′ (SEQ ID NO: 21)) (Schwingshackl A, Duszyk M, Brown N, Moqbel R. HμMan eosinophils release matrix metalloproteinase-9 on stimulation with TNF-α. J Allergy Clin Immunol 104: 983-989, 1999).
# [3] = test system: double-stranded DNA of the region from −77 to −70 containing the AP-1 binding site of the human matrix metalloproteinase-9 promoter; experiment: Gel shift assay (EMSA), AP-1 site oligonucleotide; conditions: 10 μM polyamide, 0.6 μM fluorescently labeled double-stranded DNA, 37° C., 1 hour
# Description: as §1
SMILES,binding to target double-stranded DNA (mobility versus lanes containing only DS) [1],NF-κβ p65-NF-κβ binding region complex of the MMP-9 promoter in immunoprecipitation with anti-NF-κβ p65 antibodies [2],binding to target double-stranded DNA (mobility versus lanes containing only DS) [3]
CC(=O)Nc1cc(C(=O)Nc2cc(C(=O)NCCC(=O)Nc3cc(C(=O)Nc4cc(C(=O)NCCCC(=O)Nc5cn(C)c(C(=O)Nc6cn(C)c(C(=O)NCCC(=O)Nc7cc(C(=O)Nc8cc(C(=O)NCCC(=O)NCCCN(C)C)n(C)c8)n(C)c7)n6)n5)n(C)c4)n(C)c3)n(C)c2)n(C)c1 [HMMP9NFκβ],lower mobility,not detected,
CC(=O)Nc1cn(C)c(C(=O)Nc2cc(C(=O)NCCC(=O)Nc3cn(C)c(C(=O)Nc4cc(C(=O)Nc5cc(C(=O)NCCCC(=O)Nc6cn(C)c(C(=O)Nc7cn(C)c(C(=O)Nc8cc(C(=O)NCCC(=O)Nc9cn(C)c(C(=O)Nc%10cc(C(=O)NCCC(=O)NCCCN(C)C)n(C)c%10)n9)n(C)c8)n7)n6)n(C)c5)n(C)c4)n3)n(C)c2)n1 [HMMP9AP1],,,lower mobility
